Results reported in patent publication US7718784B2, “Switchable nucleic acids for diagnostics, screening and molecular electronics” (priority 2003, dated 2010).
[dabcylT] = deoxythymidine carrying a dabcyl quencher; {FAM} = fluorescein (FAM) label; d = 2'-deoxy (DNA); r = 2'-OH (RNA)

Columns and labels:
NCp7 = NCp7 (Human immunodeficiency virus type 1 group M subtype B, UniProt P12493); details: for difference in fluorescence intensity (factor): DNA analogs of the two extreme states H and O
From the text: This switch has fluorescent labels, * (e.g., FAM, 6-carboxy-fluorescein), at the 5′-end of the chain and Q (a quencher, e.g., dabcyl) near the 3′-end of the DNA segment (light font). […] In the O species, * and Q are within the Förster distance for efficient quenching. However, they are far apart in the extended hairpin form, H, and the switch emits strongly.
By altering the DNA sequence, K1 is adjusted between 0.1-0.01 (K1=[O]/[H]). […] Upon addition of NCp7 (P), the K1 equilibrium shifts to the right, and the fluorescence signal decreases. The switch is set to a null signal in the presence of a slight excess of P, and is triggered to emit when a competitor, C, sequesters the protein in the P.C complex. […] Knowledge of K1, K2, and the input concentrations, Ot, Pt, and Ct will allow estimation of K3.
This allows the equilibrium shift upon changing the sequence, or adding NCp7, to be monitored very easily. Simply put, the fluorescence of pure H and O are known, so their populations in a mixed system will be just a linear function of the measured fluorescence.

proviral DNA synthesis = details: cited from earlier work
NC = details: cited from earlier work

## FAM-d(GCATGCCTCCGCATGC(T-dabcyl)CCAACACGC)-UAGCGGUGGCUAGC (DNA GCATGCCTCCGCATGCTCCAACACGCUAGCGGUGGCUAGC; sugars from the 5' end d26 r14, [dabcylT] at 17, 5' {FAM}, backbone and methylation of C not given here) [M2]
NCp7
  fluorescence of switch without and with NCp7: bright in the absence of NCp7 and dark in its presence
  difference in fluorescence intensity (factor): 10

## FAMd(GCTAGCCACCGCTAGC(T-dabcyl)CCAACACGC)-UAGCGGUGGCUAGC [M1]
NCp7
  difference in fluorescence intensity (factor): 10

## FAMd(GCTATCCACCGATAGC(T-dabcyl)CCAACACGC)-UAGCGGUGGCUAGC (DNA GCTATCCACCGATAGCTCCAACACGCUAGCGGUGGCUAGC; chemistry not fully specified) [M3]
NCp7; 10 nM concentration of the switch
  equilibration with NCp7: within a minute

## c(F-C-dW-R-C-K)
Proviral DNA synthesis
  In vivo effects: suggest impairment of proviral DNA synthesis
NC
  competition with NC for in vitro recognition of its RNA, DNA and protein targets: competes with NC
